This experiment has as its system apyrase. The experiment is described as follows: Screen for apyrase inhibitors (Method 1, in vitro phosphate-release absorbance assay). In kind it is biochemical. The following applies: inhibitor conc at 1 mM stock, 1 hr room temperature, absorbance 630 nm; rounded average of two assay results. The procedure, abridged: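 Phosphate-release colorimetric assay (Windsor method) in 60 mM Hepes, 3 mM MgCl2, 3 mM CaCl2, 3 mM ATP, pH 6.5, with compound or DMSO control added. Released phosphate developed with ammonium molybdate and ascorbic acid/TCA, then stopped with citrate/acetic acid.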
Turning to `CC1Cc2ccccc2N1S(=O)(=O)c1cccc(C(=O)Nc2ccc(S(=O)(=O)N(C)C)cc2)c1` (centres unmarked) [I-526, N-(4-(N,N-dimethylsulfamoyl)phenyl)-3-((2-methylindolin-1-yl)sulfonyl)benzamide], the “% Inhibition of Apyrase” value is on record as 55%. The value for `COc1ccc(NS(=O)(=O)c2cccc(C(=O)N3c4ccccc4CC3C)c2)cc1` (centres unmarked) [I-435, N-(4-methoxyphenyl)-3-(2-methylindoline-1-carbonyl)benzenesulfonamide] was 64%; that for `CCOc1ccc(S(=O)(=O)Nc2cccc(C(=O)Nc3nnc[nH]3)c2)cc1` [I-671, 3-((4-ethoxyphenyl)sulfonamido)-N-(4H-1,2,4-triazol-3-yl)benzamide] was 2%; that for `Cc1ccc(S(=O)(=O)N(C)c2ccc(C(=O)Nc3ccc4c(c3)OCCO4)cc2)cc1` [I-938, N-(2,3-dihydrobenzo[b][1,4]dioxin-6-yl)-4-((N,4-dimethylphenyl)sulfonamido)benzamide] was 51%.

As to `CC(=O)Nc1cccc(NC(=O)c2cccc(S(=O)(=O)N3c4ccccc4CC3C)c2)c1` (centres unmarked) [I-589, N-(3-acetamidophenyl)-3-((2-methylindolin-1-yl)sulfonyl)benzamide], the “% Inhibition of Apyrase” value is on record as 42%. With `Cc1ccc(C)c(S(=O)(=O)Nc2ccc(C(=O)Nc3ccccc3F)cc2)c1` [I-907, 4-((2,5-dimethylphenyl)sulfonamido)-N-(2-fluorophenyl)benzamide], the “% Inhibition of Apyrase” value is on record as 61%. The value for `Cc1ccc(NS(=O)(=O)c2ccc(C(=O)N3CCc4cc(S(N)(=O)=O)ccc43)cc2)cc1` [I-884, 1-(4-(N-(p-tolyl)sulfamoyl)benzoyl)indoline-5-sulfonamide] was 48%; that for `Cc1ccc(NC(=O)c2ccc(NS(=O)(=O)c3ccc(F)c(F)c3)cc2)cc1` [I-899, 4-((3,4-difluorophenyl)sulfonamido)-N-(p-tolyl)benzamide] was 65%; that for `Cc1ccc(S(=O)(=O)N(C)c2ccc(C(=O)Nc3cc([N+](=O)[O-])ccc3C)cc2)cc1` [I-925, 4-((N,4-dimethylphenyl)sulfonamido)-N-(2-methyl-5-nitrophenyl)benzamide] was 56%. The value for `Cc1ccccc1NC(=O)c1cccc(S(=O)(=O)Nc2ccc3c(c2)OCO3)c1` [I-238, 3-(N-(benzo[d][1,3]dioxol-5-yl)sulfamoyl)-N-(o-tolyl)benzamide] was 74%.

Take `CCOc1ccc(S(=O)(=O)Nc2cccc(C(=O)Nc3ccc(C)cn3)c2)cc1` [I-640, 3-((4-ethoxyphenyl)sulfonamido)-N-(5-methylpyridin-2-yl)benzamide]: the “% Inhibition of Apyrase” value was found to be 56%.

As to `Cc1ccc(NC(=O)c2sccc2C)c(S(=O)(=O)Nc2ccc(I)cc2)c1` [I-823, N-(2-(N-(4-iodophenyl)sulfamoyl)-4-methylphenyl)-3-methylthiophene-2-carboxamide], the “% Inhibition of Apyrase” value is 53%. As for `O=C(Nc1cccc(C(F)(F)F)c1)c1ccccc1S(=O)(=O)N1CCCCC1` [I-356, 2-(piperidin-1-ylsulfonyl)-N-(3-(trifluoromethyl)phenyl)benzamide], the “% Inhibition of Apyrase” value is listed as 10%.

Regarding `O=C(Nc1ccc(OC(F)F)cc1)c1ccccc1S(=O)(=O)Nc1cccc(C(F)(F)F)c1` [I-1, N-(4-(difluoromethoxy)phenyl)-2-(N-(3-(trifluoromethyl)phenyl)sulfamoyl)benzamide], the “% Inhibition of Apyrase” value was 84%. The value for `COc1ccccc1NS(=O)(=O)c1cccc(C(=O)Nc2c(C)nc(O)nc2O)c1` [I-461, N-(2,4-dihydroxy-6-methylpyrimidin-5-yl)-3-(N-(2-methoxyphenyl)sulfamoyl)benzamide] was 59%. The value for `COc1ccc(NS(=O)(=O)c2cccc(NC(=O)c3cccc(-n4cccc4)c3)c2)cc1` [I-27, N-(3-(N-(4-methoxyphenyl)sulfamoyl)phenyl)-3-(1H-pyrrol-1-yl)benzamide] was 24%; that for `O=C(Nc1ccc(Cl)c(Cl)c1)c1ccc(NS(=O)(=O)c2ccc(F)c(F)c2)cc1` [I-926, N-(3,4-dichlorophenyl)-4-((3,4-difluorophenyl)sulfonamido)benzamide] was 56%; that for `Cc1ccc(Br)c(NS(=O)(=O)c2cccc(NC(=O)c3ccc(C)nc3)c2)c1` [I-738, N-(3-(N-(2-bromo-5-methylphenyl)sulfamoyl)phenyl)-6-methylnicotinamide] was 52%. The value for `Cc1ccc(S(=O)(=O)N(C)c2ccc(C(=O)Nc3ccccc3OC(F)F)cc2)cc1` [I-947, N-(2-(difluoromethoxy)phenyl)-4-((N,4-dimethylphenyl)sulfonamido)benzamide] was 43%. Consider `CC(=O)c1cc2c(cc1NC(=O)c1cccc(S(=O)(=O)N3CCc4ccccc43)c1)OCO2` [I-584, N-(6-acetylbenzo[d][1,3]dioxol-5-yl)-3-(indolin-1-ylsulfonyl)benzamide], for which the “% Inhibition of Apyrase” value stood at 46%. The value for `O=C(Nc1cnccc1O)c1cccc(NS(=O)(=O)c2ccc(Cl)c(Cl)c2)c1` [I-668, 3-((3,4-dichlorophenyl)sulfonamido)-N-(4-hydroxypyridin-3-yl)benzamide] was 10%; that for `COc1ccccc1NS(=O)(=O)c1cccc(NC(=O)c2ccc(=O)n(C)n2)c1` [I-774, N-(3-(N-(2-methoxyphenyl)sulfamoyl)phenyl)-1-methyl-6-oxo-1,6-dihydropyridazine-3-carboxamide] was 3%; that for `O=C(Nc1ccc2c(c1)OCO2)c1ccc(Cl)c(S(=O)(=O)N2CCc3ccccc32)c1` [I-562, N-(benzo[d][1,3]dioxol-5-yl)-4-chloro-3-(indolin-1-ylsulfonyl)benzamide] was 51%.

Consider `Cc1ccc(C(=O)Nc2ccccc2S(=O)(=O)Nc2ccccc2)cc1F` [I-817, 3-fluoro-4-methyl-N-(2-(N-phenylsulfamoyl)phenyl)benzamide], for which the “% Inhibition of Apyrase” value turned out to be 64%. The value for `O=C(Nc1cccnc1)c1cccc(NS(=O)(=O)c2ccc(Br)cc2)c1` [I-648, 3-((4-bromophenyl)sulfonamido)-N-(pyridin-3-yl)benzamide] was 51%; that for `Cc1ccc(NC(=O)c2ccc(NS(=O)(=O)c3ccc(F)c(F)c3)cc2)cc1F` [I-924, 4-((3,4-difluorophenyl)sulfonamido)-N-(3-fluoro-4-methylphenyl)benzamide] was 57%; that for `O=C(Nc1ccc(F)c(F)c1)c1cccc(S(=O)(=O)Nc2ccc3c(c2)OCO3)c1` [I-220, 3-(N-(benzo[d][1,3]dioxol-5-yl)sulfamoyl)-N-(3,4-difluorophenyl)benzamide] was 68%. Regarding `O=C(Nc1ccc(Cl)cc1Cl)c1cccc(S(=O)(=O)Nc2ccc(Cl)cc2)c1` [I-519, 3-(N-(4-chlorophenyl)sulfamoyl)-N-(2,4-dichlorophenyl)benzamide], the “% Inhibition of Apyrase” value was 56%. The value for `O=C(Nc1cccc(C(F)(F)F)c1)c1cccc(S(=O)(=O)Nc2ccccc2F)c1` [I-285, 3-(N-(2-fluorophenyl)sulfamoyl)-N-(3-(trifluoromethyl)phenyl)benzamide] was 17%; that for `COc1ccc(NS(=O)(=O)c2cccc(NC(=O)c3n[nH]c(=O)c4ccccc34)c2)cc1` [I-736, N-(3-(N-(4-methoxyphenyl)sulfamoyl)phenyl)-4-oxo-3,4-dihydrophthalazine-1-carboxamide] was 53%; that for `O=C(c1ccc(NS(=O)(=O)c2ccc(F)cc2)cc1)N1CCc2ccccc21` [I-965, 4-fluoro-N-(4-(indoline-1-carbonyl)phenyl)benzenesulfonamide] was 3%. In the case of `O=C(Nc1ccccc1Cl)c1cccc(S(=O)(=O)N2CCc3ccccc32)c1` [I-604, N-(2-chlorophenyl)-3-(indolin-1-ylsulfonyl)benzamide], the “% Inhibition of Apyrase” value is on record as 23%. Regarding `Cc1cc(C(=O)Nc2cccc(S(=O)(=O)Nc3ccccc3F)c2)no1` [I-731, N-(3-(N-(2-fluorophenyl)sulfamoyl)phenyl)-5-methylisoxazole-3-carboxamide], the “% Inhibition of Apyrase” value is 55%.

In the case of `COc1ccc(NC(=O)c2cccc(S(=O)(=O)N3CCc4ccccc43)c2)cc1` [I-454, 3-(indolin-1-ylsulfonyl)-N-(4-methoxyphenyl)benzamide], the “% Inhibition of Apyrase” value amounted to 60%. The value for `Cc1ccc(NC(=O)c2ccc(C(=O)Nc3ccc(C)cc3)cc2)cc1` [I-859, N1,N4-di-p-tolylterephthalamide] was 72%; that for `O=C(Nc1ccccc1)c1ccc(Cl)c(S(=O)(=O)Nc2ccc(Br)cc2)c1` [I-43, 3-(N-(4-bromophenyl)sulfamoyl)-4-chloro-N-phenylbenzamide] was 13%. The value for `O=C(Nc1cccc(S(=O)(=O)Nc2ccccc2Cl)c1)c1cnc(Cl)c(Cl)c1` [I-756, 5,6-dichloro-N-(3-(N-(2-chlorophenyl)sulfamoyl)phenyl)nicotinamide] was 30%; that for `Cc1ccccc1NC(=O)c1cccc(S(=O)(=O)N2c3ccccc3CC2C)c1` (centres unmarked) [I-466, 3-((2-methylindolin-1-yl)sulfonyl)-N-(o-tolyl)benzamide] was 59%; that for `Cc1ccc(NC(=O)c2cccc(S(=O)(=O)N3CCc4ccccc43)c2)cc1` [I-501, 3-(indolin-1-ylsulfonyl)-N-(p-tolyl)benzamide] was 57%. The value for `CC(=O)Nc1ccc(NC(=O)c2ccc(NS(=O)(=O)c3ccc(Br)cc3)cc2)cc1` [I-963, N-(4-acetamidophenyl)-4-((4-bromophenyl)sulfonamido)benzamide] was 10%; that for `O=C(Nc1ccc(Br)cc1)c1cccc(S(=O)(=O)N2CCc3ccccc32)c1` [I-189, N-(4-bromophenyl)-3-(indolin-1-ylsulfonyl)benzamide] was 70%.

Source of the values: patent publication US12685312B2, “Sulfonamide apyrase inhibitors” (Texas Crop Science, Inc., priority 2022, dated 2026).
